Reference: US8470861B2, “Mitochondria-targeted antioxidant prodrugs and methods of use” (University of Rochester, priority 2005, dated 2013)
One block for each compound: values may come before it.

What was measured:
[1] = cited from earlier work
[2] = tested on: isolated rat liver mitochondria (mitochondrial β-oxidation); assay: Mitochondrial biotransformation of alkanoic-acid-based prodrugs; conditions: for biotransformation / substrate quality for β-oxidation (in words): isolated rat liver mitochondria; for effect of added carnitine on biotransformation: presence vs. absence of added carnitine
Description: Mitochondrial Biotransformation of Alkanoic-Acid-Based Prodrugs. Rat liver mitochondria were isolated from livers freshly collected from adult male Sprague-Dawley rats (190-225 g) and were used as soon as possible after isolation (Nadtochiy, et al. (2007) J. Mol. Cell. Cardiol. 42:812; Hoffman et al. (2007) Am. J. Physiol. 292:H101). Livers were removed immediately after CO2 euthanasia of the animal, minced, and homogenized with a glass Dounce homogenizer with loose-fitting pestle in liver mitochondria isolation medium that contained 0.25 M sucrose, 2.0 mM HEPES, 1.0 mM EGTA (pH 7.4) at 4° C. The homogenate was centrifuged once at 1000×g for 3 minutes at 4° C. to remove cellular debris. After removal of visible surface fat, the resulting supernatant was centrifuged at 10,000×g for 10 minutes at 4° C. The supernatant was discarded after removing visible surface fat, and the pellet was suspended in ice-cold liver mitochondria isolation medium and centrifuged again at 10,000×g for 10 minutes at 4° C. The mitochondrial pellet thus obtained was suspended in Ca^2+-depletion buffer (1 mM EGTA, 10 mM NaCl, 5 mM succinate, 195 mM mannitol, 25 mM sucrose, 40 mM HEPES, pH 7.2) at room temperature) and incubated with gentle stirring first at room temperature for 10 minutes and then in an ice bath for 5 minutes. Ca^2+-Depletion buffer serves to chelate calcium, activate mitochondrial respiration, and activate the Na^+/Ca^2+ exchanger. The mitochondrial suspension was then centrifuged at 10,000×g for 10 minutes at 4° C., and the pellet was suspended in liver swelling buffer that contained 195 mM mannitol, 25 mM sucrose, 40 mM HEPES (pH 7.2) at 4° C.; liver swelling buffer allows for ionic/osmotic equilibrium through the remainder of the preparation. The suspension was centrifuged at 10,000×g for 10 minutes at 4° C., followed by the removal of light mitochondria and a final centrifugation at 10,000×g for 10 minutes at 4° C. The mitochondrial pellet was suspended in liver swelling buffer at 4° C. Protein concentrations were determined with the Lowry reagent.^56
The quality of mitochondrial preparations was determined by estimating the respiration control ratio (RCR, i.e., the ratio of state 3 vs. state 4 respiration rates) with a Clark-type oxygen electrode (Oxygraph, Hansatech Instruments, Norfolk, England). The incubation mixtures contained 120 mM KCl, 25 mM sucrose, 5 mM MgCl2, 5 mM KH2PO4, 1 mM EGTA, 10 mM HEPES, 10 mM succinate, 2.5 mg/mL fat-free bovine serum albumin, 0.5-0.8 mg/mL mitochondrial protein, 5 μM rotenone, and 100 μM ADP (pH 7.4) and were incubated at 37° C.
Reaction mixtures were prepared in disposable glass culture tubes and contained 20 mM HEPES, 1 mM EGTA, 100 mM KCl, 5 mM KH2PO4, 10 mM MgCl2, 25 mM sucrose, 2 mM L-carnitine (if added), 5 mM ATP, 10 mg/mL bovine serum albumin, 1.4 mM dithiothreitol, 0.13 mM CoA, and 1 mM substrate (pH 7.4). Reaction mixtures were incubated at 37° C. with gentle stirring. Mitochondrial protein (approximately 5 mg/mL) was added, and the samples were incubated for 5 minutes with gentle mixing, which was maintained during the incubation period, to keep the homogenate suspended. After 5 minutes of incubation, the substrates were added. The substrates were dissolved in methanol and added to the reaction mixtures to a final concentration of 1 mM, unless otherwise stated; the final methanol concentration was ≦0.5%. ω-(1-Methyl-1H-imidazol-2-ylthio)alkanoic acids 28a and 28b were dissolved in distilled water and added to the reaction mixtures to a final concentration of 1 mM. Samples were incubated at 37° C. for 30 minutes with constant gentle mixing, and samples were collected for analysis at t=0, 10, 20, and 30 minutes.
Phenolic metabolite formation, i.e., phenol, 2-methylphenol, 2,6-dimethylphenol, 3,5-dimethylphenol, and 2,6-diisopropylphenol, from ω-(phenoxy)alkanoic acids, was quantified by HPLC analysis.

[3] = tested on: isolated rat cardiomyocytes; assay: Cytoprotective effects in cardiomyocytes, hypoxia-reoxygenation protocol (Trypan Blue exclusion); assay type: cell-based; conditions: for cytoprotective effect in presence of etomoxir: compound 1 μM + etomoxir 20 μM; for cytoprotection: compounds 1 μM, etomoxir 20 μM
Procedure: Upper panel: Alkanoic acids 28a and 28b (1 μM), methimazole (1 μM), and etomoxir (20 μM) were incubated with cardiomyocytes in a hypoxia-reoxygenation protocol. CON, control; HR, hypoxia-reoxygenation; Eto, etomoxir. Statistical analysis (one-way ANOVA, n=3): CON vs. HR, p<0.05; HR vs. HR+28a, p<0.05; CON vs. HR+28a, NS; HR+28a vs. HR+28a+Eto, p<0.05; HR vs. HR+28b, p<0.05; HR+28b vs. HR+28b+Eto, p<0.05; HR vs. Methimazole, NS. Lower panel: Alkanoic acids 25c and 30a (1 μM), 2,6-dimethylphenol (1 μM), and etomoxir (20 μM) were incubated with cardiomyocytes in a hypoxia-reoxygenation protocol. CON, control; HR, hypoxia-reoxygenation; Eto, etoximir. Statistical analysis (one-way ANOVA, n=3): CON vs. HR, p<0.05; HR vs. HR+25c, p<0.05; CON vs. HR+25c, p<0.05; HR+25c vs. HR+25c+Eto, p<0.05; HR vs. HR+30a, p<0.05; HR+30a vs. HR+30a+Eto, p<0.05; HR vs. 2,6-Dimethylphenol, NS.
Primary ventricular cardiomyocytes were isolated from adult rats and viability was assessed […]. All cells were used within 1 hour of isolation and were 80-85% viable and rod-shaped prior to the experiments. Cell viability was quantified with the Trypan Blue exclusion test. The cells were subjected to a hypoxia-reoxygenation protocol designed to simulate cardiac ischemia-reperfusion injury.

[4] = tested on: IMR90 cells; conditions: cited from earlier work
[5] = 5 mg/kg daily for two weeks in feed, cited from earlier work

SMILES: Cc1c(S)ncn1C [1,5-dimethyl-4-mercaptoimidazole]
pKa of the thiol group [1]: 2.3

biotransformation / substrate quality for β-oxidation (in words) [2]: no biotransformation
SMILES: Cc1cccc(C)c1O/C=C\C(=O)O [(Z)-3-(2,6-dimethylphenoxy)acrylic acid]

effect of added carnitine on biotransformation [2]: no significant difference
SMILES: O=C(O)CCOc1ccccc1 [Compound 25a, 3-(Phenoxy)propanoic acid]

biotransformation / substrate quality for β-oxidation (in words) [2]: poor substrates
SMILES: Cc1cccc(C)c1OCCC(=O)O [Compound 25c, 3-(2,6-Dimethylphenoxy)propanoic acid]
cytoprotective effect in presence of etomoxir [3]: blocked by etomoxir
cytoprotection [3]: cytoprotective

biotransformation / substrate quality for β-oxidation (in words) [2]: poor substrates
SMILES: Cc1cccc(C)c1OCCCCC(=O)O [Compound 26c, 5-(2,6-Dimethylphenoxy)pentanoic acid]

SMILES: Cn1ccnc1SCCC(=O)O [Compound 28a, 3-(1-methyl-1H-imidazol-2-ylthio)propanoic acid]
cytoprotective effect in presence of etomoxir [3]: blocked by etomoxir
cytoprotection [3]: significant cytoprotection

SMILES: Cn1ccnc1SCCCCC(=O)O [Compound 28b, 5-(1-Methyl-1H-imidazol-2-ylthio)pentanoic acid]
cytoprotective effect in presence of etomoxir [3]: blocked by etomoxir
cytoprotection [3]: significant cytoprotection

biotransformation / substrate quality for β-oxidation (in words) [2]: much better substrate
effect of added carnitine on biotransformation [2]: no significant difference
SMILES: Cc1cccc(C)c1OCSCCC(=O)O [Compound 29, 3-[(2,6-Dimethylphenoxy)methylthio]propanoic acid]

rate of biotransformation relative to saturated analog 25c ([2]; 30a vs. 25c): approximately 20 fold
SMILES: Cc1cccc(C)c1O/C=C/C(=O)O [Compound 30a, (E)-3-(2,6-dimethylphenoxy)acrylic acid]
cytoprotective effect in presence of etomoxir [3]: blocked by etomoxir
cytoprotection [3]: cytoprotective

SMILES: CC(C)c1cccc(C(C)C)c1O/C=C/C(=O)O [Compound 30b, (E)-3-(2,6-diisopropylphenoxy)acrylic acid]
biotransformation / substrate quality for β-oxidation (in words) [2]: No quantifiable biotransformation

SMILES: ONCc1ccccc1 [N-benzylhydroxylamine]
concentration that delays senescence (as low as) [4]: 10 µM

SMILES: CNO [N-methylhydroxylamine]
concentration that delays senescence (as low as) [4]: 10 µM

SMILES: CC(C)(C)NO [N-tert-butylhydroxylamine]
radiation sensitivity ([5]; 8 Gy whole-body irradiation): decreased the radiation sensitivity
compound-associated toxicity [5]: no compound-associated toxicity was observed
concentration that delays senescence (as low as) [4]: 10 µM

SMILES: CCOC(=O)[C@@]1(CCCCCCOc2ccc(Cl)cc2)CO1 [etomoxir, reference compound]
cytoprotection [3]: no cytoprotective effect

SMILES: Cn1ccnc1S [methimazole, 2-Mercapto-1-methylimidazole, reference compound]
cytoprotection [3]: failed to provide cytoprotection
